From EP4722207A1, “OXOISOINDOLINYL-SUBSTITUTED TETRAHYDROPYRIMIDINEDIONE DERIVATIVE AND USE THEREOF” (Gluetacs Therapeutics (Shanghai) Co., Ltd., priority 2023, dated 2024)

How the values were obtained:
Assay type in all cases: cell-based
Details in all cases: compounds at 50 nM and 500 nM, 24 hours
IKZF1 = target: T1, IKZF1 (Homo sapiens, UniProt Q13422+Q96SW2); assay: Western-blot assay, substrate protein degradation in hPBMCs: IKZF1
T1 construct: effects of the compounds of the present disclosure on the expression of target proteins in cells; endogenous in cells; host or cells: human PBMCs (hPBMCs)
T1 sequence (Q13422 whole entry): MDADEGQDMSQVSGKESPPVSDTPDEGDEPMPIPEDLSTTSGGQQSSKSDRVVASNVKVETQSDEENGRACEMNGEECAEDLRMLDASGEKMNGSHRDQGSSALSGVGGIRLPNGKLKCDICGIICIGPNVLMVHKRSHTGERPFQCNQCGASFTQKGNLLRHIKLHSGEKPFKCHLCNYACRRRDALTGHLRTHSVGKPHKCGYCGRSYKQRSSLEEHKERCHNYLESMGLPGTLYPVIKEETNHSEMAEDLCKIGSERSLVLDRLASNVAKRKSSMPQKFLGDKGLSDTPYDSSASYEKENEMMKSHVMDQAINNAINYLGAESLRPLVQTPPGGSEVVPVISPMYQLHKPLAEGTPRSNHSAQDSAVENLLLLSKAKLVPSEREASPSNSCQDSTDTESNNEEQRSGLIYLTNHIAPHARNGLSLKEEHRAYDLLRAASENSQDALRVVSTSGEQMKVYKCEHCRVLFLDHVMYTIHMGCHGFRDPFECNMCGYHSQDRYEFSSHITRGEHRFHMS
T1 sequence (Q96SW2 whole entry): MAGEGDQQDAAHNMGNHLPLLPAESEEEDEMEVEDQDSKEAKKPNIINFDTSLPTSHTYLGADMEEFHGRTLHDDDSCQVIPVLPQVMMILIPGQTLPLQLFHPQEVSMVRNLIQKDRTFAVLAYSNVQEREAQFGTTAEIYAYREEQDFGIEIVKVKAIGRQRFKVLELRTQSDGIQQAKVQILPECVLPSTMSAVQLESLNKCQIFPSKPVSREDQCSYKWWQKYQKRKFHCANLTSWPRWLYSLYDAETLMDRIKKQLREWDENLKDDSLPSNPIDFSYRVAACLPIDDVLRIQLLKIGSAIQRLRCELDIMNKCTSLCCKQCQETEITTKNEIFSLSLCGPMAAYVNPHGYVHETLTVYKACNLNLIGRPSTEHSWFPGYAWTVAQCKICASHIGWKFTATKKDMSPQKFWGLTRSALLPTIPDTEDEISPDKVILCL
T1 sequence (Q16531 whole entry partner): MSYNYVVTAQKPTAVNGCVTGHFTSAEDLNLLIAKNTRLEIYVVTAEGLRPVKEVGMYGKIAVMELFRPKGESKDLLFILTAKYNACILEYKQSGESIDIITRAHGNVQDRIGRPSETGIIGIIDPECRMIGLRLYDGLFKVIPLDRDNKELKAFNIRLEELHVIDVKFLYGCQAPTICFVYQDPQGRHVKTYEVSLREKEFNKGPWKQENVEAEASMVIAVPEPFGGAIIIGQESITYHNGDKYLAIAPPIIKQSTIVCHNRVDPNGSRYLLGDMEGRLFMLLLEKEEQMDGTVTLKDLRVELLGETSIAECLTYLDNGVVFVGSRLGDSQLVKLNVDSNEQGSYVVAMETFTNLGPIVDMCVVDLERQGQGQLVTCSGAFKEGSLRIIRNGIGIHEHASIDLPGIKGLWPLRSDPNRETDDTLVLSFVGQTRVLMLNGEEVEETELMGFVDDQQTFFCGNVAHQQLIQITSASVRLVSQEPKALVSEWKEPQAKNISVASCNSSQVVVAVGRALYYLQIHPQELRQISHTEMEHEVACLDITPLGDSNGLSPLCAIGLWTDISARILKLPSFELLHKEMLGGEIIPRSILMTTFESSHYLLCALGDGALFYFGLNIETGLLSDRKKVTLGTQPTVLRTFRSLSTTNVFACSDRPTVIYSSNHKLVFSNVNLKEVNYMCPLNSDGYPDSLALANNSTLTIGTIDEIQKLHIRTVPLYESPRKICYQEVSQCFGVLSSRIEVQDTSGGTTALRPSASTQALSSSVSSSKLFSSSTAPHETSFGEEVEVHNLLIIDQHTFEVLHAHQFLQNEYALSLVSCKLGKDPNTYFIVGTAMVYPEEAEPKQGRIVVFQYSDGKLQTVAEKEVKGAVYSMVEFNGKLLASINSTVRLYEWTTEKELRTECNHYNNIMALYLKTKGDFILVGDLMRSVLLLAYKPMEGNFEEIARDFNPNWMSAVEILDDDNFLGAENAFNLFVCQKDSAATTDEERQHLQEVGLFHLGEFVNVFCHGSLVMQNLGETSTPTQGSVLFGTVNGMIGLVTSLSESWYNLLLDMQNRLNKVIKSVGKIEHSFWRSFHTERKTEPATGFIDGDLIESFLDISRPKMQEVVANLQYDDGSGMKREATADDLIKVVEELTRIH

GSPT1 = target: T2, GSPT1 (Homo sapiens, UniProt P15170+Q96SW2); assay: Western-blot assay, substrate protein degradation in hPBMCs: GSPT1
T2 construct: effects of the compounds of the present disclosure on the expression of target proteins in cells; endogenous in cells; host or cells: human PBMCs (hPBMCs)
T2 sequence (P15170 whole entry): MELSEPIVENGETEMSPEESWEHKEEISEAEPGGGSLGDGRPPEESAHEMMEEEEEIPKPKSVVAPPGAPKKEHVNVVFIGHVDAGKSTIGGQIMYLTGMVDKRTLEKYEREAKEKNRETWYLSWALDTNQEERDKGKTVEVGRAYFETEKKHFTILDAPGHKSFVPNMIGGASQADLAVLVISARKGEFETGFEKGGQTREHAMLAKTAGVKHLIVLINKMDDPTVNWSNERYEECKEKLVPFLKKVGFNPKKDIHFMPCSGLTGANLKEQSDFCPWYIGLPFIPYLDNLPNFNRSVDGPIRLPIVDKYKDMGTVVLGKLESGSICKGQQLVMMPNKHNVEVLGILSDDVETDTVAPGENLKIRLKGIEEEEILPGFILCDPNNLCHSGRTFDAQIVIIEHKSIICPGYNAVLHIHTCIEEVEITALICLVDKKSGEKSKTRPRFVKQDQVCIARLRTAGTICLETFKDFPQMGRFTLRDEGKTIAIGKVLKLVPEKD
T2 sequence (Q96SW2 whole entry): as the sequence (Q96SW2 whole entry) above
T2 sequence (Q16531 whole entry partner): as the sequence (Q16531 whole entry partner) above

IKZF3 = target: T3, IKZF3 (Homo sapiens, UniProt Q96SW2+Q9UKT9); assay: Western-blot assay, substrate protein degradation in hPBMCs: IKZF3
T3 construct: effects of the compounds of the present disclosure on the expression of target proteins in cells; endogenous in cells; host or cells: human PBMCs (hPBMCs)
T3 sequence (Q9UKT9 whole entry): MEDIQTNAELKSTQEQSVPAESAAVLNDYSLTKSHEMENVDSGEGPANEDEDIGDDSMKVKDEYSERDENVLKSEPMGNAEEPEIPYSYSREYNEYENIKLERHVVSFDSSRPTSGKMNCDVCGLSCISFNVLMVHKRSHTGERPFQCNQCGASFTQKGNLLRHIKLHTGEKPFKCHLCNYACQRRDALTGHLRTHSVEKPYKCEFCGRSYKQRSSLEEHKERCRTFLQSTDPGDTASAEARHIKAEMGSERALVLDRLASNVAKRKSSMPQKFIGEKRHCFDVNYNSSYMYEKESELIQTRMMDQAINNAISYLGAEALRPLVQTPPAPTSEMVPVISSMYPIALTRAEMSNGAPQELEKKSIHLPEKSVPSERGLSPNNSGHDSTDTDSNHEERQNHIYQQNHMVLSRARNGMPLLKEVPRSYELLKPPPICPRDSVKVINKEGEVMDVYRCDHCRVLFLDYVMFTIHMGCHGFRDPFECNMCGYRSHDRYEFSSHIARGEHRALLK
T3 sequence (Q96SW2 whole entry): as the sequence (Q96SW2 whole entry) above
T3 sequence (Q16531 whole entry partner): as the sequence (Q16531 whole entry partner) above

WEE1 = target: T4, WEE1 (Homo sapiens, UniProt P30291+Q96SW2); assay: Western-blot assay, substrate protein degradation in hPBMCs: WEE1
T4 construct: effects of the compounds of the present disclosure on the expression of target proteins in cells; endogenous in cells; host or cells: human PBMCs (hPBMCs)

CK1α = target: T5, CK1α (Homo sapiens, UniProt P48729+Q96SW2); assay: Western-blot assay, substrate protein degradation in hPBMCs: CK1α
T5 construct: effects of the compounds of the present disclosure on the expression of target proteins in cells; endogenous in cells; host or cells: human PBMCs (hPBMCs)
T5 sequence (P48729 whole entry): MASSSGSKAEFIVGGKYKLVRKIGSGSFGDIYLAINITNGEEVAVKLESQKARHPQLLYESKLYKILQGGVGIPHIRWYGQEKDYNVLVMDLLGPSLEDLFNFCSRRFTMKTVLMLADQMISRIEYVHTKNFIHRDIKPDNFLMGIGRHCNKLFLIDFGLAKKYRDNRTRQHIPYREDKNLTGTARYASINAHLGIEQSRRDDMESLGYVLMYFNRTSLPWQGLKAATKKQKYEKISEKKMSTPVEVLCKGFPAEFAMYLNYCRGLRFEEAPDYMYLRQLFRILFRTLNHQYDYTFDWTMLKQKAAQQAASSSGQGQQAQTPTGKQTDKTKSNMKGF
T5 sequence (Q96SW2 whole entry): as the sequence (Q96SW2 whole entry) above
T5 sequence (Q16531 whole entry partner): as the sequence (Q16531 whole entry partner) above

IKZF2 = target: T6, IKZF2 (Homo sapiens, UniProt Q96SW2+Q9UKS7); assay: Western-blot assay, substrate protein degradation in hPBMCs: IKZF2
T6 construct: effects of the compounds of the present disclosure on the expression of target proteins in cells; endogenous in cells; host or cells: human PBMCs (hPBMCs)
T6 sequence (Q9UKS7 whole entry): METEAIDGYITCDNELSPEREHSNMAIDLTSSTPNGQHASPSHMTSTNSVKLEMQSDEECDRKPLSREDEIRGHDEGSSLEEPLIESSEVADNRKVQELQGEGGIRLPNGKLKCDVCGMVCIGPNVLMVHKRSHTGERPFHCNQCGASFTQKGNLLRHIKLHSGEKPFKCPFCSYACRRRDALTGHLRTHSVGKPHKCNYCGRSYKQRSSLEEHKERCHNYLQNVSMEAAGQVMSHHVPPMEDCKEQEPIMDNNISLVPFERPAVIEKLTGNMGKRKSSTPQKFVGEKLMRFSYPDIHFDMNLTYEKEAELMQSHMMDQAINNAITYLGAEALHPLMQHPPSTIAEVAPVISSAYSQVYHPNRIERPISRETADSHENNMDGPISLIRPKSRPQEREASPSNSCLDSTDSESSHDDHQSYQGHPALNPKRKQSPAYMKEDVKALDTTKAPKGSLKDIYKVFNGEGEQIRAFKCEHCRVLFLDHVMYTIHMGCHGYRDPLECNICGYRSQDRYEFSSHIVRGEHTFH
T6 sequence (Q96SW2 whole entry): as the sequence (Q96SW2 whole entry) above
T6 sequence (Q16531 whole entry partner): as the sequence (Q16531 whole entry partner) above

C[C@@H]1CN(C(c2ccccc2)c2ccccc2)CCN1Cc1ccc2c(c1)C(=O)N(N1CCC(=O)NC1=O)C2=O [GT-06449, (R)-5-((4-benzhydryl-2-methylpiperazin-1-yl)methyl)-2-(2,4-dioxotetrahydropyrimidin-1(2H)-yl)isoindoline-1,3-dione]
IKZF1 substrate protein remaining % (IKZF1): B ("B" is defined as 80%< substrate protein remaining %≤ 100%) | GSPT1 substrate protein remaining % (GSPT1): A ("A" is defined as 0% ≤ substrate protein remaining % ≤ 80%) | IKZF3 substrate protein remaining % (IKZF3): A ("A" is defined as 0% ≤ substrate protein remaining % ≤ 80%) | WEE1 substrate protein remaining % (WEE1): B ("B" is defined as 80%< substrate protein remaining %≤ 100%) | CK1α substrate protein remaining % (CK1α): B ("B" is defined as 80%< substrate protein remaining %≤ 100%) | IKZF2 substrate protein remaining % (IKZF2): A ("A" is defined as 0% ≤ substrate protein remaining % ≤ 80%)

O=C1CCN(N2C(=O)c3ccc(CN4CC5CCC4CN5C(c4ccccc4)c4ccccc4)cc3C2=O)C(=O)N1 (stereo not drawn) [GT-06451, 5-((5-benzhydryl-2,5-diazabicyclo[2.2.2]octan-2-yl)methyl)-2-(2,4-dioxotetrahydropyrimidin-1(2H)-yl)isoindoline-1,3-dione]
IKZF1 substrate protein remaining % (IKZF1): B ("B" is defined as 80%< substrate protein remaining %≤ 100%) | GSPT1 substrate protein remaining % (GSPT1): B ("B" is defined as 80%< substrate protein remaining %≤ 100%) | IKZF3 substrate protein remaining % (IKZF3): B ("B" is defined as 80%< substrate protein remaining %≤ 100%) | WEE1 substrate protein remaining % (WEE1): A ("A" is defined as 0% ≤ substrate protein remaining % ≤ 80%) | CK1α substrate protein remaining % (CK1α): B ("B" is defined as 80%< substrate protein remaining %≤ 100%) | IKZF2 substrate protein remaining % (IKZF2): B ("B" is defined as 80%< substrate protein remaining %≤ 100%)

O=C1CCN(N2Cc3cc(CN4CC5CCC(C4)N5C(c4ccccc4)c4ccccc4)ccc3C2=O)C(=O)N1 [GT-06452, 1-(5-((8-benzhydryl-3,8-diazabicyclo[3.2.1]octan-3-yl)methyl)-1-oxoisoindolin-2-yl)dihydropyrimidine-2,4(1H,3H)-dione]
IKZF1 substrate protein remaining % (IKZF1): B ("B" is defined as 80%< substrate protein remaining %≤ 100%) | GSPT1 substrate protein remaining % (GSPT1): B ("B" is defined as 80%< substrate protein remaining %≤ 100%) | IKZF3 substrate protein remaining % (IKZF3): B ("B" is defined as 80%< substrate protein remaining %≤ 100%) | WEE1 substrate protein remaining % (WEE1): A ("A" is defined as 0% ≤ substrate protein remaining % ≤ 80%) | CK1α substrate protein remaining % (CK1α): B ("B" is defined as 80%< substrate protein remaining %≤ 100%) | IKZF2 substrate protein remaining % (IKZF2): B ("B" is defined as 80%< substrate protein remaining %≤ 100%)

O=C1CCN(N2C(=O)c3ccc(CN4CC5CCC(C4)N5C(c4ccccc4)c4ccccc4)cc3C2=O)C(=O)N1 [GT-06453, 5-((8-benzhydryl-3,8-diazabicyclo[3.2.1]octan-3-yl)methyl)-2-(2,4-dioxotetrahydropyrimidin-1(2H)-yl)isoindoline-1,3-dione]
IKZF1 substrate protein remaining % (IKZF1): B ("B" is defined as 80%< substrate protein remaining %≤ 100%) | GSPT1 substrate protein remaining % (GSPT1): B ("B" is defined as 80%< substrate protein remaining %≤ 100%) | IKZF3 substrate protein remaining % (IKZF3): B ("B" is defined as 80%< substrate protein remaining %≤ 100%) | WEE1 substrate protein remaining % (WEE1): B ("B" is defined as 80%< substrate protein remaining %≤ 100%) | CK1α substrate protein remaining % (CK1α): B ("B" is defined as 80%< substrate protein remaining %≤ 100%) | IKZF2 substrate protein remaining % (IKZF2): A ("A" is defined as 0% ≤ substrate protein remaining % ≤ 80%)

O=C1CCN(N2Cc3cc(CN4C5CCC4CN(C(c4ccccc4)c4ccccc4)C5)ccc3C2=O)C(=O)N1 [GT-06454, 1-(5-((3-benzhydryl-3,8-diazabicyclo[3.2.1]octan-8-yl)methyl)-1-oxoisoindolin-2-yl)dihydropyrimidine-2,4(1H,3H)-dione]
IKZF1 substrate protein remaining % (IKZF1): B ("B" is defined as 80%< substrate protein remaining %≤ 100%) | GSPT1 substrate protein remaining % (GSPT1): B ("B" is defined as 80%< substrate protein remaining %≤ 100%) | IKZF3 substrate protein remaining % (IKZF3): B ("B" is defined as 80%< substrate protein remaining %≤ 100%) | WEE1 substrate protein remaining % (WEE1): A ("A" is defined as 0% ≤ substrate protein remaining % ≤ 80%) | CK1α substrate protein remaining % (CK1α): B ("B" is defined as 80%< substrate protein remaining %≤ 100%) | IKZF2 substrate protein remaining % (IKZF2): B ("B" is defined as 80%< substrate protein remaining %≤ 100%)

O=C1CCN(N2C(=O)c3ccc(CN4C5CCC4CN(C(c4ccccc4)c4ccccc4)C5)cc3C2=O)C(=O)N1 [GT-06455, 5-((3-benzhydryl-3,8-diazabicyclo[3.2.1]octan-8-yl)methyl)-2-(2,4-dioxotetrahydropyrimidin-1(2H)-yl)isoindoline-1,3-dione]
IKZF1 substrate protein remaining % (IKZF1): B ("B" is defined as 80%< substrate protein remaining %≤ 100%) | GSPT1 substrate protein remaining % (GSPT1): B ("B" is defined as 80%< substrate protein remaining %≤ 100%) | IKZF3 substrate protein remaining % (IKZF3): B ("B" is defined as 80%< substrate protein remaining %≤ 100%) | WEE1 substrate protein remaining % (WEE1): A ("A" is defined as 0% ≤ substrate protein remaining % ≤ 80%) | CK1α substrate protein remaining % (CK1α): B ("B" is defined as 80%< substrate protein remaining %≤ 100%) | IKZF2 substrate protein remaining % (IKZF2): B ("B" is defined as 80%< substrate protein remaining %≤ 100%)

CC1(C)CCC(CN2CC3CC(C2)N3Cc2ccc3c(c2)C(=O)N(N2CCC(=O)NC2=O)C3=O)=C(c2ccc(Cl)cc2)C1 [GT-06457, 5-((3-((4'-chloro-5,5-dimethyl-3,4,5,6-tetrahydro-[1,1'-biphenyl]-2-yl)methyl)-3,6-diazabicyclo[3.1.1]heptan-6-yl)methyl)-2-(2,4-dioxotetrahydropyrimidin-1(2H)-yl)isoindoline-1,3-dione]
IKZF1 substrate protein remaining % (IKZF1): A ("A" is defined as 0% ≤ substrate protein remaining % ≤ 80%) | GSPT1 substrate protein remaining % (GSPT1): A ("A" is defined as 0% ≤ substrate protein remaining % ≤ 80%) | IKZF3 substrate protein remaining % (IKZF3): A ("A" is defined as 0% ≤ substrate protein remaining % ≤ 80%) | WEE1 substrate protein remaining % (WEE1): A ("A" is defined as 0% ≤ substrate protein remaining % ≤ 80%) | CK1α substrate protein remaining % (CK1α): A ("A" is defined as 0% ≤ substrate protein remaining % ≤ 80%) | IKZF2 substrate protein remaining % (IKZF2): A ("A" is defined as 0% ≤ substrate protein remaining % ≤ 80%)

CC1(C)CCC(CN2C3CC2CN(Cc2ccc4c(c2)CN(N2CCC(=O)NC2=O)C4=O)C3)=C(c2ccc(Cl)cc2)C1 [GT-06458, 1-(5-((6-((4'-chloro-5,5-dimethyl-3,4,5,6-tetrahydro-[1,1'-biphenyl]-2-yl)methyl)-3,6-diazabicyclo[3.1.1]heptan-3-yl)methyl)-1-oxoisoindolin-2-yl)dihydropyrimidine-2,4(1H,3H)-dione]
IKZF1 substrate protein remaining % (IKZF1): A ("A" is defined as 0% ≤ substrate protein remaining % ≤ 80%) | GSPT1 substrate protein remaining % (GSPT1): A ("A" is defined as 0% ≤ substrate protein remaining % ≤ 80%) | IKZF3 substrate protein remaining % (IKZF3): A ("A" is defined as 0% ≤ substrate protein remaining % ≤ 80%) | WEE1 substrate protein remaining % (WEE1): A ("A" is defined as 0% ≤ substrate protein remaining % ≤ 80%) | CK1α substrate protein remaining % (CK1α): A ("A" is defined as 0% ≤ substrate protein remaining % ≤ 80%) | IKZF2 substrate protein remaining % (IKZF2): A ("A" is defined as 0% ≤ substrate protein remaining % ≤ 80%)
